Reference: patent US7960407B2, “Crystal forms of an imidazole derivative” (Requalia Pharma Inc., priority 2006, dated 2011)

Tests used:
[1] = solid-state stability of the crystal forms; type: physicochemical; details: qualitative comparison of the forms identified
[2] = hygroscopicity of the crystal form; type: physicochemical; details: solid form, qualitative

SMILES	stability of the crystal form [1]	other results
CCc1nc2c(C)nc(C)cc2n1-c1ccc(CCNC(=O)NS(=O)(=O)c2ccc(C)cc2)cc1 [Crystal Form C, N-[({2-[4-(2-Ethyl-4,6-dimethyl-1H-imidazo[4,5-c]pyridin-1-yl)phenyl]ethyl}amino)carbonyl]-4-methylbenzenesulfonamide]	less stable	stability of the crystal form ([1]; listed as C): (metastable)
CCc1nc2c(C)nc(C)cc2n1-c1ccc(CCNC(=O)NS(=O)(=O)c2ccc(C)cc2)cc1 [Polymorph Form B, N-[({2-[4-(2-Ethyl-4,6-dimethyl-1H-imidazo[4,5-c]pyridin-1-yl)phenyl]ethyl}amino)carbonyl]-4-methylbenzenesulfonamide]	stable	–
CCc1nc2c(C)nc(C)cc2n1-c1ccc(CCNC(=O)NS(=O)(=O)c2ccc(C)cc2)cc1 [Crystal Form G, N-[({2-[4-(2-Ethyl-4,6-dimethyl-1H-imidazo[4,5-c]pyridin-1-yl)phenyl]ethyl}amino)carbonyl]-4-methylbenzenesulfonamide]	less stable	–
CCc1nc2c(C)nc(C)cc2n1-c1ccc(CCNC(=O)NS(=O)(=O)c2ccc(C)cc2)cc1 [Example 2, 2-ETHYL-4,6-DI METHYL-1-(4-{2-[({[(4-METHYLPHENYL)SULFONYL]AMINO}CARBONYL)AMINO]ETHYL}PHENYL)-1H-IMIDAZO[4,5-c]PYRIDINE, reference compound]	–	stability of the crystal form ([1]; listed as N-[({2-[4-(2-Ethyl-4,6-dimethyl-1H-imidazo[4,5-c]pyridin-1-yl)phenyl]ethyl}amino): unstable
CCc1nc2c(C)nc(C)cc2n1-c1ccc(CCNC(=O)NS(=O)(=O)c2ccc(C)cc2)cc1 [Polymorph Form A, N-[({2-[4-(2-Ethyl-4,6-dimethyl-1H-imidazo[4,5-c]pyridin-1-yl)phenyl]ethyl}amino)carbonyl]-4-methylbenzenesulfonamide]	most stable	hygroscopicity [2]: non-hygroscopic
CCc1nc2c(C)nc(C)cc2n1-c1ccc(CCNC(=O)NS(=O)(=O)c2ccc(C)cc2)cc1 [Crystal Form D, N-[({2-[4-(2-Ethyl-4,6-dimethyl-1H-imidazo[4,5-c]pyridin-1-yl)phenyl]ethyl}amino)carbonyl]-4-methylbenzenesulfonamide]	less stable	–
